Measured values reported in patent US20190119348A1, “PARATHYROID HORMONE RECEPTOR 1 ANTAGONIST AND INVERSE AGONIST POLYPEPTIDES AND METHODS OF THEIR USE” (The General Hospital Corporation, priority 2016, published 2019).
Read-outs that look alike come from different tables or passages of the source. Where a SMILES comes first, the peptide text is derived from it. [ ]: non-standard residue; d: D form. Nle = CCCC[C@H](N)C(=O)O

Target: T1, endogenous hPTHR1 (Homo sapiens, UniProt Q03431)
T1 construct: Saos-2, in which is endogenously expressed the hPTHR1; endogenous in cells
T1 sequence (Q03431 27-593): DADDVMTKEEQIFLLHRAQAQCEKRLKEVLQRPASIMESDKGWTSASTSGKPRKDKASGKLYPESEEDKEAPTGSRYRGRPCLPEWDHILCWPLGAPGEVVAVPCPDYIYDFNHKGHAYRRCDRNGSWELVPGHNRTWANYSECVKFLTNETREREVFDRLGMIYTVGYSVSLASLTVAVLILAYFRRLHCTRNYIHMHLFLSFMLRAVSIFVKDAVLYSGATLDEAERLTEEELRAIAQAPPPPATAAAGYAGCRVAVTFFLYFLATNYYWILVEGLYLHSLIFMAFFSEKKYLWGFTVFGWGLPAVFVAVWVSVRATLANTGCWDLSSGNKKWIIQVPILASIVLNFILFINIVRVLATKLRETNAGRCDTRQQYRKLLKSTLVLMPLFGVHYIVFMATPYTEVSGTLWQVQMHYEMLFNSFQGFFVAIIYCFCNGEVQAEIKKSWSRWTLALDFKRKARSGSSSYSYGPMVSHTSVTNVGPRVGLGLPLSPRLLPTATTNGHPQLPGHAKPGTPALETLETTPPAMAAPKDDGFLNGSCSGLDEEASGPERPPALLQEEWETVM
Assay: Antagonism of PTH(1-34)- and PTHrP(1-36)-induced cAMP response (GloSensor) in SGS-72 cells
Type: cell-based
Summary of the method: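 SaOS2-derived SGS-72 cells, which express endogenous hPTHR1 and a stable GloSensor cAMP reporter, were loaded with 0.5 mM luciferin for 15 min at room temperature in CO2-independent medium with 0.1% BSA. Antagonist was tested against PTH(1-34) or PTHrP(1-36), with luminescence taken at the agonist-alone maximum; pIC50 came from four-parameter fits.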

[1] = IC50 PTH(1-34) (Table 6, nanomolar value), antagonist pre-treatment 15 minutes, PTH(1-34) 0.3 nM

CC[C@H](C)[C@H](NC(=O)[C@H](CCC(=O)O)NC(=O)[C@H](C)NC(=O)[C@@H](NC(=O)[C@H](Cc1c[nH]cn1)NC(=O)[C@@H](NC(=O)[C@H](CCC(=O)O)NC(=O)[C@H](C)NC(=O)[C@@H](NC(=O)[C@H](CC(C)C)NC(=O)[C@H](CCCCN)NC(=O)[C@H](Cc1c[nH]cn1)NC(=O)[C@H](CC(C)C)NC(=O)[C@H](Cc1c[nH]c2ccccc12)NC(=O)[C@H](C)NC(=O)[C@H](CCCNC(=N)N)NC(=O)[C@H](CCCNC(=N)N)NC(=O)[C@H](CCCNC(=N)N)NC(=O)[C@H](C)NC(=O)[C@H](CC(=O)O)NC(=O)[C@H](CCC(N)=O)NC(=O)[C@@H](NC(=O)[C@H](Cc1c[nH]c2ccccc12)NC(=O)[C@H](CCCCN)NC(=O)[C@@H](Cc1c[nH]c2ccccc12)NC(=O)[C@H](CCCNC(=N)N)NC(=O)[C@H](CCC(N)=O)NC(=O)[C@H](Cc1c[nH]cn1)NC(=O)[C@H](CCSC)NC(=O)[C@@H](N)CC(C)C)[C@@H](C)CC)[C@@H](C)CC)[C@@H](C)CC)[C@@H](C)O)C(N)=O [compound 1990, dW12, W23-LA-PTH(7-36)-1990] (H-LMHQR[dW]KWIQDARRRAWLHKLIAEIHTAEI-NH2; N-terminus assumed)
IC50 [1]: 1.23 nM

CC[C@H](C)[C@H](N)C(=O)N[C@@H](CCC(N)=O)C(=O)N[C@@H](CC(C)C)C(=O)N[C@@H](CCSC)C(=O)N[C@@H](Cc1c[nH]cn1)C(=O)N[C@@H](CCC(N)=O)C(=O)N[C@@H](CC(C)C)C(=O)N[C@H](Cc1c[nH]c2ccccc12)C(=O)N[C@@H](CCCCN)C(=O)N[C@@H](Cc1c[nH]c2ccccc12)C(=O)N[C@H](C(=O)N[C@@H](CCC(N)=O)C(=O)N[C@@H](CC(=O)O)C(=O)N[C@@H](C)C(=O)N[C@@H](CCCNC(=N)N)C(=O)N[C@@H](CCCNC(=N)N)C(=O)N[C@@H](CCCNC(=N)N)C(=O)N[C@@H](C)C(=O)N[C@@H](Cc1c[nH]c2ccccc12)C(=O)N[C@@H](CC(C)C)C(=O)N[C@@H](Cc1c[nH]cn1)C(=O)N[C@@H](CCCCN)C(=O)N[C@@H](CC(C)C)C(=O)N[C@H](C(=O)N[C@@H](C)C(=O)N[C@@H](CCC(=O)O)C(=O)N[C@H](C(=O)N[C@@H](Cc1c[nH]cn1)C(=O)N[C@H](C(=O)N[C@@H](C)C(=O)N[C@@H](CCC(=O)O)C(=O)N[C@H](C(N)=O)[C@@H](C)CC)[C@@H](C)O)[C@@H](C)CC)[C@@H](C)CC)[C@@H](C)CC [compound 2003, L11, dW12, W23-LA-PTH(5-36)-2003] (H-IQLMHQL[dW]KWIQDARRRAWLHKLIAEIHTAEI-NH2; N-terminus assumed)
IC50 [1]: 2.57 nM

CCCC[C@H](NC(=O)[C@@H](N)CC(C)C)C(=O)N[C@@H](Cc1c[nH]cn1)C(=O)N[C@@H](CCC(N)=O)C(=O)N[C@@H](CC(C)C)C(=O)N[C@H](Cc1c[nH]c2ccccc12)C(=O)N[C@@H](CCCCN)C(=O)N[C@@H](Cc1c[nH]c2ccccc12)C(=O)N[C@H](C(=O)N[C@@H](CCC(N)=O)C(=O)N[C@@H](CC(=O)O)C(=O)N[C@@H](C)C(=O)N[C@@H](CCCNC(=N)N)C(=O)N[C@@H](CCCNC(=N)N)C(=O)N[C@@H](CCCNC(=N)N)C(=O)N[C@@H](C)C(=O)N[C@@H](Cc1c[nH]c2ccccc12)C(=O)N[C@@H](CC(C)C)C(=O)N[C@@H](Cc1c[nH]cn1)C(=O)N[C@@H](CCCCN)C(=O)N[C@@H](CC(C)C)C(=O)N[C@H](C(=O)N[C@@H](C)C(=O)N[C@@H](CCC(=O)O)C(=O)N[C@H](C(=O)N[C@@H](Cc1c[nH]cn1)C(=O)N[C@H](C(=O)N[C@@H](C)C(=O)N[C@@H](CCC(=O)O)C(=O)N[C@H](C(N)=O)[C@@H](C)CC)[C@@H](C)O)[C@@H](C)CC)[C@@H](C)CC)[C@@H](C)CC [compound 1997, Nle8,L11, dW12, W23-LA-PTH(7-36)-1997] (H-L[Nle]HQL[dW]KWIQDARRRAWLHKLIAEIHTAEI-NH2; N-terminus assumed)
IC50 [1]: 2.1 nM

CCCC[C@H](NC(=O)[C@H](CC(C)C)NC(=O)[C@H](CCC(N)=O)NC(=O)[C@@H](N)[C@@H](C)CC)C(=O)N[C@@H](Cc1c[nH]cn1)C(=O)N[C@@H](CCC(N)=O)C(=O)N[C@@H](CC(C)C)C(=O)N[C@H](Cc1c[nH]c2ccccc12)C(=O)N[C@@H](CCCCN)C(=O)N[C@@H](Cc1c[nH]c2ccccc12)C(=O)N[C@H](C(=O)N[C@@H](CCC(N)=O)C(=O)N[C@@H](CC(=O)O)C(=O)N[C@@H](C)C(=O)N[C@@H](CCCNC(=N)N)C(=O)N[C@@H](CCCNC(=N)N)C(=O)N[C@@H](CCCNC(=N)N)C(=O)N[C@@H](C)C(=O)N[C@@H](Cc1c[nH]c2ccccc12)C(=O)N[C@@H](CC(C)C)C(=O)N[C@@H](Cc1c[nH]cn1)C(=O)N[C@@H](CCCCN)C(=O)N[C@@H](CC(C)C)C(=O)N[C@H](C(=O)N[C@@H](C)C(=O)N[C@@H](CCC(=O)O)C(=O)N[C@H](C(=O)N[C@@H](Cc1c[nH]cn1)C(=O)N[C@H](C(=O)N[C@@H](C)C(=O)N[C@@H](CCC(=O)O)C(=O)N[C@H](C(N)=O)[C@@H](C)CC)[C@@H](C)O)[C@@H](C)CC)[C@@H](C)CC)[C@@H](C)CC [compound 1999, Nle8, L11, dW12, W23-LA-PTH(5-36)-1999] (H-IQL[Nle]HQL[dW]KWIQDARRRAWLHKLIAEIHTAEI-NH2; N-terminus assumed)
IC50 [1]: 2.75 nM

CC[C@H](C)[C@H](NC(=O)[C@H](CCC(=O)O)NC(=O)[C@H](C)NC(=O)[C@@H](NC(=O)[C@H](Cc1c[nH]cn1)NC(=O)[C@@H](NC(=O)[C@H](CCC(=O)O)NC(=O)[C@H](C)NC(=O)[C@@H](NC(=O)[C@H](CC(C)C)NC(=O)[C@H](CCCCN)NC(=O)[C@H](Cc1c[nH]cn1)NC(=O)[C@H](CC(C)C)NC(=O)[C@H](Cc1c[nH]c2ccccc12)NC(=O)[C@H](C)NC(=O)[C@H](CCCNC(=N)N)NC(=O)[C@H](CCCNC(=N)N)NC(=O)[C@H](CCCNC(=N)N)NC(=O)[C@H](C)NC(=O)[C@H](CC(=O)O)NC(=O)[C@H](CCC(N)=O)NC(=O)[C@@H](NC(=O)[C@H](Cc1c[nH]c2ccccc12)NC(=O)[C@H](CCCCN)NC(=O)[C@@H](Cc1c[nH]c2ccccc12)NC(=O)[C@H](CC(C)C)NC(=O)[C@H](CCC(N)=O)NC(=O)[C@H](Cc1c[nH]cn1)NC(=O)[C@H](CCSC)NC(=O)[C@@H](N)CC(C)C)[C@@H](C)CC)[C@@H](C)CC)[C@@H](C)CC)[C@@H](C)O)C(N)=O [compound 2001, L11, dW12, W23-LA-PTH(7-36)-2001] (H-LMHQL[dW]KWIQDARRRAWLHKLIAEIHTAEI-NH2; N-terminus assumed)
IC50 [1]: 2.08 nM

CC[C@H](C)[C@H](N)C(=O)N[C@@H](CCC(N)=O)C(=O)N[C@@H](CC(C)C)C(=O)N[C@@H](CCSC)C(=O)N[C@@H](Cc1c[nH]cn1)C(=O)N[C@@H](CCC(N)=O)C(=O)N[C@@H](CCCNC(=N)N)C(=O)N[C@H](Cc1c[nH]c2ccccc12)C(=O)N[C@@H](CCCCN)C(=O)N[C@@H](Cc1c[nH]c2ccccc12)C(=O)N[C@H](C(=O)N[C@@H](CCC(N)=O)C(=O)N[C@@H](CC(=O)O)C(=O)N[C@@H](C)C(=O)N[C@@H](CCCNC(=N)N)C(=O)N[C@@H](CCCNC(=N)N)C(=O)N[C@@H](CCCNC(=N)N)C(=O)N[C@@H](C)C(=O)N[C@@H](Cc1c[nH]c2ccccc12)C(=O)N[C@@H](CC(C)C)C(=O)N[C@@H](Cc1c[nH]cn1)C(=O)N[C@@H](CCCCN)C(=O)N[C@@H](CC(C)C)C(=O)N[C@H](C(=O)N[C@@H](C)C(=O)N[C@@H](CCC(=O)O)C(=O)N[C@H](C(=O)N[C@@H](Cc1c[nH]cn1)C(=O)N[C@H](C(=O)N[C@@H](C)C(=O)N[C@@H](CCC(=O)O)C(=O)N[C@H](C(N)=O)[C@@H](C)CC)[C@@H](C)O)[C@@H](C)CC)[C@@H](C)CC)[C@@H](C)CC [compound 1949, dW12, W23-LA-PTH(5-36)] (H-IQLMHQR[dW]KWIQDARRRAWLHKLIAEIHTAEI-NH2; N-terminus assumed)
IC50 [1]: 1.45 nM
IC50 (antagonist pre-treatment 10 minutes, PTHrP(1-36) 0.3 nM, seven experiments, read-out: corresponding nanomolar value vs. PTHrP(1-36) (Table 5)): 1 nM
IC50 (antagonist pre-treatment 10 minutes, PTHrP(1-36) 0.3 nM, seven experiments, read-out: pIC50 vs. PTHrP(1-36) (Table 5) (converted)): 0.794 nM
IC50 (antagonist pre-treatment 15 minutes, PTHrP(1-36) 0.3 nM, read-out: IC50 PTHrP(1-36) (Table 6, nanomolar value)): 1.21 nM
IC50 (corresponding nanomolar value vs. PTH(1-34) (Table 5), antagonist pre-treatment 10 minutes, PTH(1-34) 0.3 nM, seven experiments): 1 nM
IC50 (pIC50 vs. PTH(1-34) (Table 5), antagonist pre-treatment 10 minutes, PTH(1-34) 0.3 nM, seven experiments): 0.776 nM
